In brackets after ≈: the same amount, converted by molar mass.

Test [1] has as its system inflammatory cells around bronchioles in lungs. Briefly: Murine lung histology in pneumonia model. In kind it is in vivo, mice. To be noted: 4 hours post challenge with Pseudomonas PA01. The method, then:
In this experiment, mice were infected with 10^8 PA01 strain of Pseudomonas, representing a murine pneumonia model. […] The CSA treatment was administered 4 hours post challenge with Pseudomonas.

The test system of another test is IL-6. Briefly: IL-6 levels in murine pneumonia model. To be noted: inhaled, 40 and 80 mg/kg; IL-6 measured from kidney tissue specimens (FIG. 5). In kind it is in vivo, mice. The method, then: (§1) IL-6 was measured from kidney tissue specimens.
Test [2] deals with tobramycin-resistant P. aeruginosa strains. Kind of test: MIC against tobramycin resistant strains (cross-resistance). The settings on record: seven tobramycin resistant P. aeruginosa strains (FIG. 3). Type of test: cell-based. An excerpt: Tobramycin is commonly used in reducing the bacterial burden in the lungs of cystic fibrosis patients. However, resistance to tobramycin is often observed among P. aeruginosa isolates. Tobramycin resistance is typically achieved by acylation or phosphorylation of the primary amine groups in the antibiotic.
Similar studies can be conducted for other drug-resistant pathogenic strains following this standard experimental protocol.

The test system of the next test is Staphylococcus aureus. Kind of test: Assessment of bacterial resistance by serial exposure, MIC. Type of test: cell-based. The settings on record: after 30 serial passages. An excerpt: (§2) A central consideration in the development of novel antimicrobials is potential generation of bacterial resistance. […] See Pollard J E, et al. J. Antimicrob. Chemother. 2012, 67, 2665-2672 (describing experimental protocol).

In the next test the test system is Pseudomonas aeruginosa. The description is as above. In kind it is cell-based. To be noted: serial passages (FIG. 2).
Description: as §2

Test [3] has as its system P. aeruginosa (PAO1). Briefly: MIC against infection-model strain. Type of test: cell-based.
For a further test, the system named is P. aeruginosa. Briefly: Drug combinations of CSAs and anti-pathogenic substances (synergy). In kind it is cell-based. Here is the method:
Following the protocols outlined in Appl. Microbiol. Biotechnol., 2010 (September) pp. 251-63 and Chemotherapy, 2011 (November), Vol. 57, pp. 505-10, drug combinations involving CSAs and anti-pathogenic substances are performed.

Test [4] deals with P. aeruginosa (PAO1). Kind of test: Animal model of lung infection, bacterial counts in lung tissue. Type of test: in vivo, mice. To be noted: for elimination of the bacterial burden: 80 mg/kg via nebulization; for reduction in bacterial burden: 80 mg/kg via nebulization four hours after infection. Here is the method:
In vivo studies were designed to allow observation of both tolerance for CSAs and effectiveness of the antimicrobial in reducing bacterial burden. An infection model was used in which mice were inoculated with P. aeruginosa (PAO1) intra-nasally (10^5 CFU) to establish an infection. […] Two doses were used: 40 and 80 mg/kg. […] After 24 h, the mice were euthanized, and lung tissues were homogenized. Bacterial counts were determined by serial dilution, plating on nutrient agar, incubation, and colony counting. As a comparator, tobramycin was administered via the same route, and P. aeruginosa counts were determined.
as §1

The MIC is the least concentration at which growth counts as inhibited. The low end stands for a more susceptible organism, the high end for a less susceptible organism. Turning to `CCCCCCCCNCCC[C@@H](C)[C@H]1CC[C@H]2[C@@H]3[C@H](OCCCN)C[C@@H]4C[C@H](OCCCN)CC[C@]4(C)[C@H]3C[C@H](OCCCN)[C@]12C` [CSA-13], the “inflammatory cells in lung histology” value in test [1] (40 mg/kg dose) is on record as “substantial reduction of inflammatory cells”; in test [1] (80 mg/kg dose), “even greater reduction in inflammatory cells”. For the same molecule, in the test with IL-6, the IL-6 levels entry is given as “reduced”. Further, the “susceptibility of tobramycin resistant strains” value in test [2] was “all strains were comparably susceptible”. The “change in Minimum Inhibitory Concentration (MIC)” value in the test with Staphylococcus aureus is given as “no significant change”. For the same molecule, the “MIC at which the rise appeared to level off” value in the test on Pseudomonas aeruginosa was about 20 µg/mL (≈ 29.5 µM). For the same molecule, the MIC against P. aeruginosa (PAO1) [3] worked out at 2.5 µg/mL (≈ 3.69 µM). Also, the synergy entry in the test with P. aeruginosa (combined with ciprofloxaxin) and in the test on P. aeruginosa (combined with tobramycin) was “Additional synergies were observed” each time. Also, in the test with P. aeruginosa (in combination with colistin, against P. aeruginosa), the synergistic result came out at 54%. The “drop in bacterial counts” value in the test on P. aeruginosa (PAO1) [4] (40 mg/kg via nebulization four hours after infection, lung counts after 24 h) is given as “two”. In the test on P. aeruginosa (PAO1) [4], the “elimination of the bacterial burden” value stood at 99.99%. In addition, the “reduction in bacterial burden” value in the test on P. aeruginosa (PAO1) [4] (lung counts after 24 h) is “greater than four”. Moreover, in the test with P. aeruginosa (PAO1) [4] (inhaled, 40 and 80 mg/kg, murine pneumonia model (FIG. 5)), the Pseudomonas load result was “reduced”.

As for `NC[C@H]1O[C@H](O[C@H]2[C@H](O)[C@@H](O[C@H]3O[C@H](CO)[C@@H](O)[C@H](N)[C@H]3O)[C@H](N)C[C@@H]2N)[C@H](N)C[C@@H]1O` [tobramycin, reference compound], in test [2], the “susceptibility of tobramycin resistant strains” value is “varied significantly”. The “elimination of the bacterial burden” value in the test with P. aeruginosa (PAO1) [4] was determined as 99.99%. The “reduction in bacterial burden” value in the test on P. aeruginosa (PAO1) [4] (lung counts after 24 h) is “greater than four”.

Take `CC[C@H]1OC(=O)[C@H](C)[C@@H](O[C@H]2C[C@@](C)(OC)[C@@H](O)[C@H](C)O2)[C@H](C)[C@@H](O[C@@H]2O[C@H](C)C[C@H](N(C)C)[C@H]2O)[C@](C)(O)C[C@@H](C)C(=O)[C@H](C)[C@@H](O)[C@]1(C)O` [erythromycin, reference compound]: the “reduction of the MIC of erythromycin” value in the test with P. aeruginosa (CSA-13 administered with erythromycin) is 92%.

The values above are taken from patent US12653832B2, “Methods for treating lung infections and inflammation” (BRIGHAM YOUNG UNIVERSITY, priority 2013, dated 2026).
